Test results: patent publication US20080299123A1, “TREATMENT OF CHEMOTHERAPY- OR RADIOTHERAPY-RESISTANT TUMORS” (Deutsches Krebsforschungszentrum Stiftung des offentlichen …, priority 2006, published 2008)

Tests used:
γ-secretase = assay: In vitro γ-secretase activity on membranes of CHO-hL1wt cells; assay type: cell-based; details: cells preincubated 48 h with inhibitor; membranes 2 h at 37° C.
Protocol: (§1) (A) Analysis of L1-32 cleavage by γ-secretase. Cells were treated for 48 h at 37° C. with presenilin inhibitor IX (DAPT) or for control with DMSO. Isolated membranes were incubated for 2 h at 37° C. and then separated into pellet or supernatant (SN) fractions by ultracentrifugation. Lanes 1 to 2 show cells treated with DMSO (vehicle). Lanes 3 and 4 show cells preincubated with DAPT. (B) SKOV3ip cells were treated with DAPT either in the presence or absence of the metalloprotease inhibitor TAPI-0 for 24 hr. Cells were lysed in BOG lysis buffer and analyzed by Western blot analysis. The cell supernatant was analyzed for soluble L1 using mAb L1-11A and the cell lysate was examined for L1-32 using peytL1. (C) HEK293 or HEK293-hL1wt cells were treated with DMSO, DAPT, TAPI-0 or both inhibitors for 96 h. mRNA was transcribed to cDNA and analyzed by qPCR for the genes CRABPII and cathepsin B. (D) Analysis of ERK phosphorylation in SKOV3ip cells after treatment with the indicated compounds.
Consecutive cleavage by both enzymes is a hallmark of Notch, APP and CD44 signaling that is followed by translocation of the intracellular portion to the nucleus (22). To verify this observation for tumor cells, we analyzed the processing of L1-32 in more detail. […] Indeed, we detected L1-28 in the supernatant fraction (FIG. 11A, lane 2). […]

L1 = L1 processing in SKOV3ip cells (L1-32 in lysate, soluble L1 in supernatant), Western blot; assay type: cell-based, human; details: 24 hr
Protocol: as §1
(§2) (A) Effect of L1-antibodies on ERK phosphorylation in SKOV3ip cells. The cells were incubated for 24 hr at 37° C. with the indicated purified antibodies to L1 (10 μg/ml) or isotype control IgG. […] Soluble L1 in the supernant and L1-32 in the cell lysate were analyzed by Western blot. (C) mRNA was isolated from antibody treated SKOV3ip cells, transcribed to cDNA and analyzed by qPCR for the indicated genes. […]

[1] = test system: cathepsin B and CRABPII transcription; assay: L1-dependent gene regulation by qPCR in HEK293-hL1wt cells; assay type: cell-based, human; details: preincubation 96 h
Protocol: as §1
We next investigated whether L1-mediated gene regulation was dependent on L1-processing, by carrying out inhibition experiments. […]
mRNA was isolated using the Quiagen RNAeasy mini kit (Quiagen Hilden, Germany). […] After exposing of the hybridized membranes, the PhosphorImager screens were scanned (Fuji FLA-3000, 100 μm resolution, Fuji BAS-reader software). […]

ERK phosphorylation = ERK phosphorylation in SKOV3ip cells; assay type: cell-based, human; details: treatment with DAPT, TAPI-0
Protocol: as §1, §2

L1CAM = L1CAM expression in PT45-P1 cells; assay type: cell-based, human; details: 20 ng/mL IL1β
Protocol: (a) PT45-P1res cells were either left untreated (w/o) or treated with 250 ng/mL IL1-RA for 6 hours. In parallel, PT45-P1 cells were either left untreated (w/o) or treated with 20 ng/mL IL1β for 6 hours. L1CAM mRNA levels were analysed by real-time PCR and compared with β-actin used as control. Data from duplicate measurements are expressed as amount of mRNA in arbitrary units. Results from one representative out of three experiments are shown. (b) Cellular lysates from PT45-P1res and PT45-P1 cells were subjected to western blotting using an antibody for the detection of full-length L1CAM. PT45-P1res cells were either left untreated (w/o) or treated with 250 ng/mL IL1-RA for 24 hours. In parallel, PT45-P1 cells were either left untreated (w/o) or treated with 20 ng/mL IL1β for 24 hours. In all experiments, a HSP90 antibody was used as a control for equal protein load.
Cells were seeded into 6 well and 12 well plates, respectively, and transfected or treated as indicated. […] Protein concentrations were determined using the Dc Protein assay (BioRad). […]
2 μg of total RNA were reverse-transcribed into single-stranded cDNA, as described previously (Schafer et al., 1999). […] Data were collected during annealing steps and were further analysed by using the i-Cycler iQ Optical system software (BioRad). All samples were analysed in duplicates and data are expressed as amount of mRNA in arbitrary units.

Compound | release of L1-28 from the membrane into the supernatant (γ-secretase) | L1-32 in cell lysate (L1) | soluble L1 in the medium (L1) | L1-dependent regulation of transcription for cathepsin B and CRABPII [1] | ERK activation in treated cells (ERK phosphorylation) | L1CAM expression (L1CAM)
C[C@H](NC(=O)Cc1cc(F)cc(F)c1)C(=O)N[C@H](C(=O)OC(C)(C)C)c1ccccc1 [DAPT] | could not release this fragment into the supernatant | strong increase in the metalloprotease cleavage fragment L1-32 | not increased by the treatment | blocked | did not interfere with ERK activation | –
IL1β: recombinant human Interleukin 1 beta from R&D Systems | – | – | – | – | – | enhanced L1CAM expression
